The subject of this assay is E.coli strain DH5αZ1 transformed with input pBT plasmid and amplifier plasmid pAMP-1. Kind of assay: Output EGFP fluorescence of genetic circuit amplifier as a function of input IPTG concentration. The settings on record: 3 hours growth, corrected for cell density and background fluorescence. Format: cell-based. From the text:
A second bacterial plasmid, pBT (Stratagene, CA), was selected to produce the input. It releases monomer into the cellular environment, making CI available for the engineered circuit to use. It is a simple plasmid that controls transcription of cI with the PlacUV promoter. […] The pBT vector has an origin of replication derived from p15A, making it compatible with the circuit plasmid which has a different ColE1 origin of replication. Together, the plasmids constitute a cis-trans network, since the product of one plasmid (pBT) affects the outcome of gene expression on the second plasmid (pAMP-1).
The input pBT plasmid and the amplifier plasmid pAMP-1 gene were transformed into chemically competent E.coli strain DH5αZ1. This strain was selected because it produces LacI in abundance so as to permit effective use of pBT. Transformed cells were grown overnight at 37° C. in LB broth. Chloramphenicol was added at a concentration of 50 μg/mL and ampicillin was added at a concentration of 100 μg/mL.
The overnight culture was diluted 1:50 into fresh LB medium containing IPTG at the following concentrations: 0-20-200-2000 μM. These cells were allowed to grow for another 3 hours. The cells were then spun down and re-suspended in PBS. Fluorescence was then measured on a BMG Optima microplate fluorometer equipped with filters for GFP. Absorbance at 600 nm was also measured. Fluorescence was the corrected for cell density and background fluorescence. The result, presented in Table 1, indicates an output that decreases with increasing input. Observed non-linearity is likely due to low gain of chosen gain element.

Structures are written as SMILES.

On to `CC(C)S[C@@H]1O[C@H](CO)[C@H](O)[C@H](O)[C@H]1O` [IPTG, isopropyl-β-D-thiogalactopyranoside], for which the EGFP output fluorescence by setting is: (IPTG 20 uM) 66263 arbitrary units; (IPTG 200 uM) 58338 arbitrary units; (IPTG 2000 uM) 44137 arbitrary units.
